{"source": "ChEMBL document CHEMBL1201862", "about": "“PubChem BioAssay data set” (2004)", "key": {"[1]": {"experiment": "intracellular Trypanosoma cruzi inhibitors in host cells – cell-based, plate reader, cherry-pick samples, set 3, dose response (AID 651818);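 note: compounds incubated with infected cells for about four days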", "type": "functional"}, "Protein skinhead-1": {"biological_target": "T1, Protein skinhead-1 (Caenorhabditis elegans, UniProt P34707)", "T1 sequence (P34707 whole entry)": "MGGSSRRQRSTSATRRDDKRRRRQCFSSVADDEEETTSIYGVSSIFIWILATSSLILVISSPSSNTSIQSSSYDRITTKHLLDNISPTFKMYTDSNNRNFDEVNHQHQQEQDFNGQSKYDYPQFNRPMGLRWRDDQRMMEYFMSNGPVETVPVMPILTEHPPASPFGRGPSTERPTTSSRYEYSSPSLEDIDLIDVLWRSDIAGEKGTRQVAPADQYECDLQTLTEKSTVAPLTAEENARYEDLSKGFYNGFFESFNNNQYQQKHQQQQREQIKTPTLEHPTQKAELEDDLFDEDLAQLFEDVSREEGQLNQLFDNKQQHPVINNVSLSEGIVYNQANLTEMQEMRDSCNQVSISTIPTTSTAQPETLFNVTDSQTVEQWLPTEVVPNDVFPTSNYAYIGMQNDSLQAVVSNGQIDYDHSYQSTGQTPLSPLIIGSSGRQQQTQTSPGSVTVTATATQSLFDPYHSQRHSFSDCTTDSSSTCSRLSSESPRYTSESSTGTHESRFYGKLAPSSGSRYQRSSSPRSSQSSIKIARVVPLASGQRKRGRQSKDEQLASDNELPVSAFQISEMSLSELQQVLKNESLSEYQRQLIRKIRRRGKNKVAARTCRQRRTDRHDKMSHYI", "type": "functional"}, "Nonstructural protein 1": {"biological_target": "Nonstructural protein 1 (Influenza A virus, UniProt Q194T2)", "sequence (Q194T2 whole entry)": "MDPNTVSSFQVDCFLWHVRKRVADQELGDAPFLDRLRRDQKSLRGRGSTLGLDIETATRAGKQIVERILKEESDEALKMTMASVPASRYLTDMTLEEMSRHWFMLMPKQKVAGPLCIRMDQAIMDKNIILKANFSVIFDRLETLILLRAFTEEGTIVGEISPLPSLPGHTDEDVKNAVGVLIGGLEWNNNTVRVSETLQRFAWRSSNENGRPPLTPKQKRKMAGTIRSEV", "type": "functional, Influenza A virus (A/California/07/2009(H1N1))"}, "[2]": {"experiment": "inhibitors of clade B AD8 Env fusion, dose response, cell-based, cherry-pick (AID 652062);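 note: potency is for inhibitors of fusion seen as a drop in luminescence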", "type": "functional"}, "[3]": {"biological_target": "Induced myeloid leukemia cell differentiation protein Mcl-1 (Homo sapiens, UniProt Q07820)", "sequence (Q07820 whole entry)": "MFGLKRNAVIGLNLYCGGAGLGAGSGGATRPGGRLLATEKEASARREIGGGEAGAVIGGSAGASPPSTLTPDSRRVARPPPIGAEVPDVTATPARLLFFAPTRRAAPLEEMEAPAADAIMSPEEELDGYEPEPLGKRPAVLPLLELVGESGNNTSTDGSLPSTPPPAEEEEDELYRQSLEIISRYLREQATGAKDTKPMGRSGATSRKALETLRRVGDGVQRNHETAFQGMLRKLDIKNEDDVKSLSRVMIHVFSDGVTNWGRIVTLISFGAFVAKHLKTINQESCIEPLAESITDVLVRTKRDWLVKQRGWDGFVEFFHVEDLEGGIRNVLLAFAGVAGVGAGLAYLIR", "type": "functional"}, "Fatty acid synthase [4]": {"biological_target": "T2, Fatty acid synthase (Homo sapiens, UniProt P49327)", "T2 sequence (P49327 whole entry, the tested form may be a part)": "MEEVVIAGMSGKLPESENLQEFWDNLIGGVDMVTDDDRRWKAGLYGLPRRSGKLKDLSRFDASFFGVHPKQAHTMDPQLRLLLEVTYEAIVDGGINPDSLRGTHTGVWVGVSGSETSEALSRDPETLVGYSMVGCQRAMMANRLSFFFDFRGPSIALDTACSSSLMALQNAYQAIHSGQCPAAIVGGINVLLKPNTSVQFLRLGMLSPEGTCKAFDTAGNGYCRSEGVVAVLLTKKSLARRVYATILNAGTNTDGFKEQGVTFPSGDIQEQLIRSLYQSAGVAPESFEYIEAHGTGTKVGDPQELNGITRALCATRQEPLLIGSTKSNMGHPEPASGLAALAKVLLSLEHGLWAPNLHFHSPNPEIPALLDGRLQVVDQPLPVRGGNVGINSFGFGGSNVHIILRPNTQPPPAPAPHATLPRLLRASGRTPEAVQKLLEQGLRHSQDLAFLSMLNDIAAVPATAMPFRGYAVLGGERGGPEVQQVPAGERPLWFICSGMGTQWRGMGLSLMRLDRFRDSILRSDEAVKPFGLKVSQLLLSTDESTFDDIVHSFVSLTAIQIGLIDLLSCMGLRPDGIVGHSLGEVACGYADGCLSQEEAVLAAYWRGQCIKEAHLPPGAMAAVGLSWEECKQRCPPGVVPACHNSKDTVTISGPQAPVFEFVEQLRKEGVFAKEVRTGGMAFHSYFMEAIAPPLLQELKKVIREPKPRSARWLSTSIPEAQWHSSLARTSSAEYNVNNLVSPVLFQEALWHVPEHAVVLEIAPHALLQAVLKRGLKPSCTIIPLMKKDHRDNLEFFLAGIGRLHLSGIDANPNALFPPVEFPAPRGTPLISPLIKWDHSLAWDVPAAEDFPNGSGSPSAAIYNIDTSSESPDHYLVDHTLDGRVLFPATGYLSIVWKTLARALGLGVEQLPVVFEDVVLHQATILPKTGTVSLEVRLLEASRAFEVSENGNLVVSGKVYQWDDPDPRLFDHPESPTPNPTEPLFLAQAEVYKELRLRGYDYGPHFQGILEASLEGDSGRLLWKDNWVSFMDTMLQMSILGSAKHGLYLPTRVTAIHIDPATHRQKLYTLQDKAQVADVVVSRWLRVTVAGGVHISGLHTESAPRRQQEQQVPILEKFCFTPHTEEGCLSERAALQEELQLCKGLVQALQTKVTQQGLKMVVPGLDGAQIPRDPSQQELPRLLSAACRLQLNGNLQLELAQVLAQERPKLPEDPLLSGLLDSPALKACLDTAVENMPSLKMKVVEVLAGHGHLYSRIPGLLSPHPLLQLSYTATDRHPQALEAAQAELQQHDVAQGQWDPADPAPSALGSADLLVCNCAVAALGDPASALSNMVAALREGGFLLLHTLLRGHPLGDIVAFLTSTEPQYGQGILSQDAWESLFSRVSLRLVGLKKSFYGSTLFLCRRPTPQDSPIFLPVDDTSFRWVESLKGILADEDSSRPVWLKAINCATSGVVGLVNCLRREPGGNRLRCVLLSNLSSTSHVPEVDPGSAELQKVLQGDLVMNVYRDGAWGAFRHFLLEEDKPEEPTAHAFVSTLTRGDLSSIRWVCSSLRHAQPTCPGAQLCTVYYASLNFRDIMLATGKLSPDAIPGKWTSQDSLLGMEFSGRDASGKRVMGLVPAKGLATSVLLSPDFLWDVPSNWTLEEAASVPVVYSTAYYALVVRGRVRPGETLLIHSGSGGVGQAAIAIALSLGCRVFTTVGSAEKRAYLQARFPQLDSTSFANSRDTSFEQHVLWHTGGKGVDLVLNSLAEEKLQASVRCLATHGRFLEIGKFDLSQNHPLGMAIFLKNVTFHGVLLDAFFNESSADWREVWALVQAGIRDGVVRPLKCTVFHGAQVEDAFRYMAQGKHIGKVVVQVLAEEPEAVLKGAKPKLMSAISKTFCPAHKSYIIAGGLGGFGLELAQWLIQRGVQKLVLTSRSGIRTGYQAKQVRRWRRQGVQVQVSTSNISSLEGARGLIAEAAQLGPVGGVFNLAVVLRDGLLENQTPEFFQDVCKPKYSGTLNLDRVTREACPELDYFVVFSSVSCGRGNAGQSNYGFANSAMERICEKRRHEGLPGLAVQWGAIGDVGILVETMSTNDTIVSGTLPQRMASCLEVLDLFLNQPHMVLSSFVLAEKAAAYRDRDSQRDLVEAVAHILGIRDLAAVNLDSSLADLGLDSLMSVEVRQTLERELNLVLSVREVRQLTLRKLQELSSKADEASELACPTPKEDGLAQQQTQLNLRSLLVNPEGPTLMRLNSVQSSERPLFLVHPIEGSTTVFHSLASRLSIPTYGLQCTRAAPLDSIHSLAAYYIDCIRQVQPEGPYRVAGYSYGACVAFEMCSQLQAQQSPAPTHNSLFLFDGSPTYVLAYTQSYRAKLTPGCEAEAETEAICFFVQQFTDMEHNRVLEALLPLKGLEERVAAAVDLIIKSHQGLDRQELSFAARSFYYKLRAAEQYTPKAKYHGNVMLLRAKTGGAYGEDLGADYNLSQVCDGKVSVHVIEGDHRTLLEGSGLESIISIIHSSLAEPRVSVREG", "experiment": "FAS thioesterase domain inhibitors, dose response, biochemical, endpoint fluorescence intensity, uHTS hits (AID 624327);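 note: fluorescence from hydrolysis of an O-methyl fluorescein acyl ester substrate by the enzyme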", "type": "functional"}, "Fatty acid synthase [5]": {"biological_target": "T2, Fatty acid synthase", "experiment": "FAS thioesterase domain inhibitors, dose response, biochemical, kinetic fluorescence intensity (AID 624326);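 note: rate of fluorescence rise from hydrolysis of a fluorogenic O-methyl fluorescein ester substrate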", "type": "functional"}, "[6]": {"experiment": "inhibitors of HIV Env-driven cell fusion, dose response, cherry-pick (AID 652057)", "type": "functional, cell-based"}, "[7]": {"experiment": "ZM109 Env clade C HIV-1 fusion inhibitors, dose response, HeLa effector, CEM target cells, luciferase, cherry-pick (AID 652058)", "type": "functional, cell-based"}, "[8]": {"experiment": "P. falciparum Dd2 growth inhibitors, dose response, SYBR Green, cherry-picked samples (AID 1159567)", "type": "functional, cell-based"}, "[9]": {"system": "Streptococcus sp. 'group A'", "experiment": "growth inhibition of control SK(-) GAS strain, dose response, counter-screen for streptokinase expression inhibitor project, luminescence, kanamycin, BacTiterGlo, confirmation (AID 1900)", "type": "functional, organism-based"}, "Streptococcus": {"system": "Streptococcus", "experiment": "Group A Streptococcus viability loss, dose response, counter-screen for streptokinase expression inhibitor project, luminescence, BacTiterGlo (AID 1915);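 note: potency for reduction of bacterial viability or growth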", "type": "functional, organism-based"}, "[10]": {"experiment": "inhibitors of firefly luciferase expression or activity, dose response, H4 neuroglioma cells, luminescence (AID 1990)", "type": "functional, cell-based"}, "[11]": {"experiment": "Luminescence Cell-Based Dose Response HTS to Identify Inhibitors of 5'UTR Stem-Loop Driven Prion Protein mRNA Translation in H4 Neuroglioblastoma Cells. [Related pubchem assays: 1827 (Project Summary), 1813 (Primary HTS)]", "type": "functional"}, "[12]": {"experiment": "inhibitors of SNCA 5'UTR-driven reporter translation, confirmation, H4 neuroglioma cells, luminescence (AID 1988)", "type": "functional, cell-based"}, "[13]": {"experiment": "cytotoxicity in HEK-293T cells, dose response, cytotoxicity control for TCR NF-kB inhibitor project, luminescence, T-cell screen hits (AID 489026);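 note: cells exposed to compound about 14 hours before the viability readout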", "type": "functional, cell-based"}}, "note": "Active and inactive are the calls of the source."}
{"smiles": "Cc1ccc(S(=O)(=O)N(C)C[C@H]2Oc3c(NC(=O)Nc4ccc(C(F)(F)F)cc4)cccc3C(=O)N([C@@H](C)CO)C[C@H]2C)cc1", "values": [{"measurement": "AC50", "setting": "[1]", "result": "1.55 µM (active)"}]}
{"smiles": "O=C(Nc1ccc(Cl)cc1Cl)C1=Cc2ccccc2OC1", "values": [{"measurement": "IC50", "setting": "Protein skinhead-1", "result": "> 100 µM (inactive)"}]}
{"smiles": "COc1ccc(N2CCN(C(=O)C3CCC(Cn4c(=S)[nH]c5ccccc5c4=O)CC3)CC2)cc1", "note": "(stereo not drawn)", "values": [{"measurement": "IC50", "setting": "Nonstructural protein 1", "result": "> 100 µM (active)"}, {"measurement": "AC50", "setting": "[2]", "result": "10 µM (active)"}]}
{"smiles": "O=C1CC(=O)c2c1cccc2[N+](=O)[O-]", "values": [{"measurement": "IC50", "setting": "[3]", "result": "3.52 µM (active)"}]}
{"smiles": "Cc1ccc(Cn2c(C)nc3ccc([N+](=O)[O-])cc3c2=O)cc1", "values": [{"measurement": "IC50", "setting": "Fatty acid synthase [4]", "result": "4.8 µM (active)"}, {"measurement": "IC50", "setting": "Fatty acid synthase [5]", "result": "5.2 µM (active)"}]}
{"smiles": "Cc1ccc(S(=O)(=O)N(C)C[C@@H]2Oc3ccc(NC(=O)C4CCCCC4)cc3CC(=O)N([C@H](C)CO)C[C@@H]2C)cc1", "values": [{"measurement": "AC50", "setting": "[6]", "result": "< 0.26 µM (active)"}, {"measurement": "AC50", "setting": "[7]", "result": "0.574 µM (active)"}, {"measurement": "AC50", "setting": "[2]", "result": "2.14 µM (active)"}]}
{"smiles": "C[C@H]1CN([C@@H](C)CO)C(=O)Cc2cc(NC(=O)Cc3cn(C)c4ccccc34)ccc2O[C@H]1CN(C)Cc1ccc(C(=O)Nc2ccccc2N)cc1", "values": [{"measurement": "AC50", "setting": "[1]", "result": "2 µM (active)"}]}
{"smiles": "O=C(NCCCn1ccnc1)C(=O)NCC(c1cccnc1)N1CCN(c2ccc(F)cc2)CC1", "note": "(stereo not drawn)", "values": [{"measurement": "IC50", "setting": "Nonstructural protein 1", "result": "> 100 µM (active)"}]}
{"smiles": "COc1ccccc1CNC(=O)C[C@H]1C[C@@H]2c3cc(NC(=O)Nc4ccc(C(F)(F)F)cc4)ccc3O[C@@H]2[C@H](CO)O1", "values": [{"measurement": "AC50", "setting": "[8]", "result": "6.78 µM (active)"}]}
{"smiles": "Cc1c(N=N/C(C#N)=C(\\O)c2ccccc2)c(=O)n(-c2ccccc2)n1C", "values": [{"measurement": "EC50", "setting": "[9]", "result": "2.43 µM (active)"}, {"measurement": "EC50", "setting": "Streptococcus", "result": "7.26 µM (active)"}, {"measurement": "IC50", "setting": "Nonstructural protein 1", "result": "8.08 µM (active)"}]}
{"smiles": "C[C@@H]1CN([C@@H](C)CO)C(=O)Cc2cc(NC(=O)Nc3ccc(C(F)(F)F)cc3)ccc2O[C@@H]1CN(C)Cc1ccncc1", "values": [{"measurement": "AC50", "setting": "[1]", "result": "3.57 µM (active)"}]}
{"smiles": "C[C@H]1CN([C@@H](C)CO)C(=O)Cc2cc(NC(=O)Nc3cccc4ccccc34)ccc2O[C@@H]1CN(C)Cc1ccc2c(c1)OCO2", "values": [{"measurement": "AC50", "setting": "[1]", "result": "5.35 µM (active)"}]}
{"smiles": "CSC1=N/C(=C\\c2ccccc2F)C(=O)S1", "values": [{"measurement": "IC50", "setting": "[3]", "result": "24.7 µM (not active)"}]}
{"smiles": "Cn1c(=O)c(C(=O)COC(=O)c2cc(-c3ccco3)nc3ccccc23)c(N)n(Cc2ccccc2)c1=O", "values": [{"measurement": "IC50", "setting": "[3]", "result": "2.02 µM (active)"}]}
{"smiles": "c1ccc(OCc2nc3ccccc3s2)cc1", "note": "[2-(PHENOXYMETHYL)BENZOTHIAZOLE]", "values": [{"measurement": "IC50", "setting": "Protein skinhead-1", "result": "29.5 µM (active)"}]}
{"smiles": "O=C(CSc1n[nH]c(-c2ccccn2)n1)Nc1ccccc1", "values": [{"measurement": "EC50", "setting": "[10]", "result": "> 120 µM (not active)"}, {"measurement": "EC50", "setting": "[11]", "result": "> 120 µM (not active)"}, {"measurement": "EC50", "setting": "[12]", "result": "> 120 µM (not active)"}, {"measurement": "IC50", "setting": "Nonstructural protein 1", "result": "5.02 µM (active)"}]}
{"smiles": "O=C(Nc1nc(-c2ccc(S(=O)(=O)N3CCCC3)cc2)cs1)c1ccco1", "values": [{"measurement": "IC50", "setting": "Fatty acid synthase [5]", "result": "4.05 µM (active)"}]}
{"smiles": "COc1ccc(S(=O)(=O)Nc2cccc(-c3ccc4nncn4n3)c2)cc1F", "values": [{"measurement": "IC50", "setting": "[13]", "result": "> 80 µM (inactive)"}]}
{"smiles": "CC(=O)NC(Cc1ccc(F)cc1)C(=O)N1CCN(C(=O)NCc2ccccc2)CC1", "note": "(stereo not drawn)", "values": [{"measurement": "IC50", "setting": "Protein skinhead-1", "result": "> 100 µM (inactive)"}]}
